The values that follow are results of earlier work, collected in US8034799B2, “Preventing and/or treating cardiovascular disease and/or associated heart failure” (Philera New Zealand Limited, priority 2002, dated 2011).

The test system of this series is diabetic rats. To be noted: treatment of diabetic rats; cited from earlier work.

As for `N=C(N)NN` [aminoguanidine], the aortic impedance entry is listed as “decreases”, the carotid artery compliance entry is reported as “increased” and the myocardial compliance result is given as “prevented the decreased myocardial compliance”.
